Patent US12558366B2, “Bacterial DNA gyrase inhibitors and methods of use thereof” (THE FLORIDA INTERNATIONAL UNIVERSITY BOARD OF TRUSTEES, priority 2021, dated 2026)
Converted amounts (≈) assume the structure as drawn. “Also recorded” adds a separate entry of the source.

Columns and labels:
E. coli DNA gyrase [1] = target: T1, E. coli DNA gyrase (Escherichia coli, UniProt P0AES4+P0AES6); test: SDFQ HTS assay of E. coli DNA gyrase (1536-well); format: biochemical; details: read-out: inhibition activities against E. coli DNA gyrase
Description: SDFQ HITS primary assay using pAB1_FL905 was performed in 2 μL of (1×DNA gyrase buffer: 20 mM Tris-Acetate pH 7.9, 50 mM KAc, 10 mM MgCl2, 2 mM DTT, 1 mM ATP, 0.1 mg/ml. BSA). […] 3) Spun plate at 800 rpm for 30 seconds. […] SDFQ HTS secondary assay using pAB1_FL924 was performed in 2 μL of (1×DNA gyrase buffer: 20 mM Tris-Acetate pHI 7.9, 50 mM KAc, 10 mM MgCl2, 2 mM DTT, 1 mM ATP, 0.1 mg/mL BSA). […] 3) Spun plate at 800 rpm for 30 seconds.

E. coli DNA gyrase [2] = target: T1, E. coli DNA gyrase; test: DNA gyrase mediated DNA cleavage assay; format: biochemical; details: plasmid pBR322
Description: 250 ng of supercoiled pBR322 plasmid were incubated with 50 nM of E. coli DNA gyrase in reactions containing 35 mM Tris-HCl, 24 mM KCl, 4 mM MgCl2, 2 mM DTT, 0.1 mg/mL BSA, 6.5% glycerol, and 1.75 mM ATP, in presence of 200 μM of compounds, at 37° C. for 15 min. Then, 0.2% (w/v) of SDS and 0.1 mg/mL proteinase K were added, and samples were incubated at 37° C. for 1 h. […] Samples were examined by electrophoresis in 1% w/v agarose gel containing 0.5 μg/mL ethidium bromide and photographed under UV light.

E. coli DNA gyrase [3] = target: T1, E. coli DNA gyrase; test: E. coli DNA gyrase ATPase assays; format: biochemical
Description: E. coli DNA gyrase ATPase assays were performed in 60 μl, of 1×gyrase ATPase buffer (10 mM Tris.HCl (pH 7.5), 0.2 mM EDTA, 1 mM magnesium chloride, 1 mM DTT, and 2% (w/v) glycerol) containing 50 nM E. coli DNA gyrase, 200 ng rx pAB1, 0.8 mM Phosphoenol pyruvate, 1.2 units of Pyruvate kinase, 1.7 units of lactate dehydrogenase, and 0.4 mM of NADH at 37° C. After the reaction mixtures are incubated on ice for 5 minutes, 2 mM of ATP is added to initiate the reaction. Absorbance at OD340 nm is monitored for up to 30 minutes at 37° C. in a spectrophotometer.

Mtb DNA gyrase = Mtb DNA gyrase (Mycobacterium tuberculosis, UniProt P9WG45+P9WG47); test: Mtb DNA gyrase inhibition; format: biochemical
MRSA (ATCC BAA44) = test: microbe, parasite or virus in culture; format: cell-based, S. aureus
Description: (§1) Antibacterial minimum inhibitory concentrations (MICs) were obtained from three independent experiments using broth microdilution methods in 96-well plates according to Clinical and Laboratory Standards Institute guidelines. Cells were culture from singles colonies in MHIIB medium for 24 h at 37° C. in agitation (200 RPM). The cultures were then diluted using the same media to reach an OD600 of 0.1. Then, 50 μL of the diluted cultures were added to the plates holding 50 μL of serially diluted compounds in MHIIB. The plates were incubated at 37° C. for 20 h. The starting inoculum was fixated to 10^5 colony-forming units per ml.

E. coli imp = test: microbe, parasite or virus in culture; format: cell-based; details: Escherichia coli, read-out: Minimum Inhibitory Concentration E. coli imp
Description: as §1

B. subtilis (ATCC 6633) = test: Minimum inhibitory concentration, B. subtilis; format: cell-based
Description: as §1

S. aureus (ATCC 14775) = test: Minimum inhibitory concentration, S. aureus; format: cell-based
Description: as §1

E. coli (ATCC 25922) = test: Minimum inhibitory concentration, E. coli; format: cell-based
Description: as §1

[4] = target: human DNA topoisomerase 2α (Homo sapiens, UniProt P11388); test: Human DNA topoisomerase 2α-mediated DNA cleavage assays; format: biochemical; details: plasmid pBR322
E. coli DNA gyrase [5] = target: T1, E. coli DNA gyrase; test: E. coli DNA gyrase inhibition (agarose gel-based and/or SDFQ-based, not specified per value); format: biochemical; details: Table 2 values; read-out: IC50 ( ≤15 μM) IC50

T1 sequence (P0AES4 whole entry, one chain of several): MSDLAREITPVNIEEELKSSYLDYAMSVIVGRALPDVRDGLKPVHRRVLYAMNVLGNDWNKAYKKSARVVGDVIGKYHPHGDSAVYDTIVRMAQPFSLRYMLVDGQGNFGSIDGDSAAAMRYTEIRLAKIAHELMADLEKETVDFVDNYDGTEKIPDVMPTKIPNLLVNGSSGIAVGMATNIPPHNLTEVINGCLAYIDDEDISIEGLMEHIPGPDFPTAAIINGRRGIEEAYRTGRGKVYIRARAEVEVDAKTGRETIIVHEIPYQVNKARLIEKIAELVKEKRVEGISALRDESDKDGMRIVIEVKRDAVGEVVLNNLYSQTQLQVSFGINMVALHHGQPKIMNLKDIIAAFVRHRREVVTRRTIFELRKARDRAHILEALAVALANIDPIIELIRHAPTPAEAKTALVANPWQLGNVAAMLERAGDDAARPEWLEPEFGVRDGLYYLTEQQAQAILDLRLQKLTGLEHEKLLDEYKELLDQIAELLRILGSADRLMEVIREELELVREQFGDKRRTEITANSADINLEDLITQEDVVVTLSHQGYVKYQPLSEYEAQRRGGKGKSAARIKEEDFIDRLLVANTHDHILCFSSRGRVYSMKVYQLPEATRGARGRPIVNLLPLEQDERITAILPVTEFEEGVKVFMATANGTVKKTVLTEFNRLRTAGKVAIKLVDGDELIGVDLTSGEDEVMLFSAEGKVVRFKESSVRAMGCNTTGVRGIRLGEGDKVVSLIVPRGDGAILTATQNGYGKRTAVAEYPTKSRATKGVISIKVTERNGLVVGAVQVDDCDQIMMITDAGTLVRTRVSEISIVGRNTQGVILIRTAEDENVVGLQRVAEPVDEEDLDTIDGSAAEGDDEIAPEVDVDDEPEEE
Sequence of human DNA topoisomerase 2α (P11388 whole entry): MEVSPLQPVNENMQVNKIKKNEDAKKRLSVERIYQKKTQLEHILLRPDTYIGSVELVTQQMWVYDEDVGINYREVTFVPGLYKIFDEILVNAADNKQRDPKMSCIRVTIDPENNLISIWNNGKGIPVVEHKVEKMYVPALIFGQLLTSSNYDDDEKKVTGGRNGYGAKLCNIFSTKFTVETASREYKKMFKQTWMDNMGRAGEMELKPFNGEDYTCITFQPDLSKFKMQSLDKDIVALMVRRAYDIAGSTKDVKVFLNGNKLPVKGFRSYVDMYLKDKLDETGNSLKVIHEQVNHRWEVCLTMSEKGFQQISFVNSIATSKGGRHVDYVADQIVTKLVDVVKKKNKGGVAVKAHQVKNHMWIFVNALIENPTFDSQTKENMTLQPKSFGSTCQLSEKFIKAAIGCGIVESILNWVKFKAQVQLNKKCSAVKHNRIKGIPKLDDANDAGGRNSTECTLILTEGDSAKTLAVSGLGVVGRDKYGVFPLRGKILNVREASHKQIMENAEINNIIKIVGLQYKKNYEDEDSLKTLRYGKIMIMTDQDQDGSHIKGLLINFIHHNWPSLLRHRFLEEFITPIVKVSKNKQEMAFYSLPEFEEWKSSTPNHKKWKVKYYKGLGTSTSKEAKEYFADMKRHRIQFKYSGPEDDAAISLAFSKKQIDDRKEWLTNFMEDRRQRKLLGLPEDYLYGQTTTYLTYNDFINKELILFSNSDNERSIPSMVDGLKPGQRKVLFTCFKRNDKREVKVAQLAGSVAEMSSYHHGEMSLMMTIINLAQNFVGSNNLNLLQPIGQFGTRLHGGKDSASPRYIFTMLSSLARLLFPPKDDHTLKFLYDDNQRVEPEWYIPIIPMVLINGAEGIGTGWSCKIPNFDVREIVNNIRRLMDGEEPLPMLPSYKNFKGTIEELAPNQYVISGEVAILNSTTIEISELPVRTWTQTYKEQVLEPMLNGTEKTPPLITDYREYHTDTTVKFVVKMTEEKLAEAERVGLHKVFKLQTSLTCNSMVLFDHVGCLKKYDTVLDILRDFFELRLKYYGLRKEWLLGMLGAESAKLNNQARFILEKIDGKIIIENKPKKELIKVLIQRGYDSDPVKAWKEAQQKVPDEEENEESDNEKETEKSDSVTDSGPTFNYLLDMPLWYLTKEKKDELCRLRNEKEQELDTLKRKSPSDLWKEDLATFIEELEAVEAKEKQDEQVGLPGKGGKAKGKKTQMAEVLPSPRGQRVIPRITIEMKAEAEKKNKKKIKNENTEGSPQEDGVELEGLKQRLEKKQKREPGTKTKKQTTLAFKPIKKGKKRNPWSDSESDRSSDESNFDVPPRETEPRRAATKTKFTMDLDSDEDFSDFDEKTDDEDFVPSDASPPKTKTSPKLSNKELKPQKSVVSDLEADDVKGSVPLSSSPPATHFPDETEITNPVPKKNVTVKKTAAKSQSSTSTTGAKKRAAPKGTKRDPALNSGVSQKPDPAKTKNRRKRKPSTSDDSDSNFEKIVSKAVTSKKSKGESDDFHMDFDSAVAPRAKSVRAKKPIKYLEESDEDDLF
Sequence of Mtb DNA gyrase (P9WG45 whole entry): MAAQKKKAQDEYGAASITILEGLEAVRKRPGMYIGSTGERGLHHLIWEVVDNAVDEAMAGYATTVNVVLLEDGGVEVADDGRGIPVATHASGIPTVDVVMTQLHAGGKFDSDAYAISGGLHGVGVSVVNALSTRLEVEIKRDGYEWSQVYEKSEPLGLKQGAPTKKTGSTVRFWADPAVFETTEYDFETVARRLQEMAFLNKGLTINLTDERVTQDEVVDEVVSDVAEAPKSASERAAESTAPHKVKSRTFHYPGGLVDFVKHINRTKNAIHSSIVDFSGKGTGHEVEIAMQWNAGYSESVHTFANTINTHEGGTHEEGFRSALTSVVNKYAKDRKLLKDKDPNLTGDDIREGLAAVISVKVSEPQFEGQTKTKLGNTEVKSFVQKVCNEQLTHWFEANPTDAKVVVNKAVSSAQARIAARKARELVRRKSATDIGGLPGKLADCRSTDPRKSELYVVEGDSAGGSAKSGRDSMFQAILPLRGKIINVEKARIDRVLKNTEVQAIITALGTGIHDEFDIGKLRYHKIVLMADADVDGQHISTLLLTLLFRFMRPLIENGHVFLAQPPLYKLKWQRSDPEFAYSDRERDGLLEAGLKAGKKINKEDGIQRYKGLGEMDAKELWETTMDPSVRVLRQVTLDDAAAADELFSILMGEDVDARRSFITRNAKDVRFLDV
Sequence of Mtb DNA gyrase (P9WG47 whole entry): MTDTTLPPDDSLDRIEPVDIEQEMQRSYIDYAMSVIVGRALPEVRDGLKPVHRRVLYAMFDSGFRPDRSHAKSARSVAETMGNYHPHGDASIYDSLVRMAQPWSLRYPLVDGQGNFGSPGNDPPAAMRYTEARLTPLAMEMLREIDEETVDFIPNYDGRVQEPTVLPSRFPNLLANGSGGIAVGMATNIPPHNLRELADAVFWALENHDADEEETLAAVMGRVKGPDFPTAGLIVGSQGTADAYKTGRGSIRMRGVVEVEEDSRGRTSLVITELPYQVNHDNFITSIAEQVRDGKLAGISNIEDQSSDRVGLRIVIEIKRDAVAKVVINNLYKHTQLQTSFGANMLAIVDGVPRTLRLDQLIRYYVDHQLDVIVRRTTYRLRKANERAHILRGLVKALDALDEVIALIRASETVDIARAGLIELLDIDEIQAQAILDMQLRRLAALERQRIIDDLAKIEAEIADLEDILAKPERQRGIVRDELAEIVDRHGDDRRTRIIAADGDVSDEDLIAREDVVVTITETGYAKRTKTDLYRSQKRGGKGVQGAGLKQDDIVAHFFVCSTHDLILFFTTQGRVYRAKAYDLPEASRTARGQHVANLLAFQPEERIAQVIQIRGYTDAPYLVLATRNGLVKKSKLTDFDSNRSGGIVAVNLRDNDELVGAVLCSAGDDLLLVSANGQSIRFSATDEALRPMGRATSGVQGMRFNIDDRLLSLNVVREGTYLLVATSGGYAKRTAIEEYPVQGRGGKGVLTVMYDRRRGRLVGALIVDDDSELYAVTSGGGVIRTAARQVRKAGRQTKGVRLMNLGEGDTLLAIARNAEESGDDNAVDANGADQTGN

## Cc1cc(O)c2c(c1)C(=O)c1cc(O)cc(O)c1C2=O [Compound 242, Emodin]
E. coli DNA gyrase [1]
  inhibition at 5 µM: > 40%

## CNC(=O)[C@H]1O[C@@H](n2cnc3c(NCc4cccc(I)c4)nc(Cl)nc32)[C@H](O)[C@@H]1O [chloro-IB-MECA, reference compound]
E. coli DNA gyrase [2]
  DNA gyrase-mediated double stranded DNA breaks / DNA nicking: did not DNA double stranded DNA 10 breaks
E. coli DNA gyrase [3]
  inhibition of the ATPase activities of E. coli DNA gyrase: inhibition of the ATPase activities
  mode of inhibition (ATP competitive): ATP competitive inhibitors
Mtb DNA gyrase
  inhibition of Mtb DNA gyrase activities: did not inhibit

## Cc1ccc(C(=O)Nc2ccc(S(=O)(=O)O)c3cc(S(=O)(=O)O)cc(S(=O)(=O)O)c23)cc1NC(=O)c1cccc(NC(=O)Nc2cccc(C(=O)Nc3cc(C(=O)Nc4ccc(S(=O)(=O)O)c5cc(S(=O)(=O)O)cc(S(=O)(=O)O)c45)ccc3C)c2)c1 [suramin]
E. coli DNA gyrase [1]
  inhibition at 5 µM: > 40%

## N[C@@H]1[C@H]2CN(c3nc4c(cc3F)c(=O)c(C(=O)O)cn4-c3ccc(F)cc3F)C[C@@H]12 [trovafloxacin]
E. coli DNA gyrase [1]
  inhibition at 5 µM: > 40%

## CC(OC(=O)c1cc(O)c2ccccc2c1O)C(=O)Nc1ccc(C(N)=O)cc1 (centres unmarked) [Compound 40, 1-[(4-carbamoylphenyl)carbamoyl]ethyl 1,4-dihydroxynaphthalene-2-carboxylate]
MRSA (ATCC BAA44); Staphylococcus aureus, read-out: Minimum Inhibitory Concentration S. aureus MRSA
  MIC: > 200 µM
E. coli DNA gyrase [2]
  DNA gyrase-mediated double stranded DNA breaks / DNA nicking: causes DNA gyrase-mediated double stranded DNA breaks and DNA nicking; also recorded: causes gyrase-mediated DNA double-stranded breaks and single-stranded nicks; also recorded: bacterial DNA gyrase poison
E. coli imp
  MIC: > 200 µM
B. subtilis (ATCC 6633)
  anti Bacillus subtilis activities at: 39 µg/mL
S. aureus (ATCC 14775); Staphylococcus aureus, ATCC14775, Tables 3a-3c, read-out: Minimum Inhibitory Concentration S. aureus
  MIC: > 200 µM
E. coli (ATCC 25922); Escherichia coli, ATCC25922, read-out: Minimum Inhibitory Concentration E. coli
  MIC: > 200 µM

## N=C(N)Nc1nc(-c2ccccc2)c2cc(Cl)ccc2n1 [Compound 154, N-(6-chloro-4-phenylquinazolin-2-yl)guanidine]
MRSA (ATCC BAA44)
  growth inhibition of MRSA: significant antibacterial activities
E. coli DNA gyrase [2]
  DNA gyrase-mediated double stranded DNA breaks / DNA nicking: causes the gyrase-mediated DNA double-stranded breaks and single-stranded nicks; also recorded: bacterial DNA gyrase poison
[4]
  human topoisomerase 2α-mediated DNA nicks and double-stranded breaks: causes the human topoisomerase 2α-mediated DNA nicks and double-stranded breaks
E. coli DNA gyrase [5]
  IC50: 3.12 µM
E. coli imp
  MIC: 50 to 100 µM (≈ 14.9 to 29.8 µg/mL)
S. aureus (ATCC 14775)
  growth inhibition of S. aureus: significant antibacterial activities
E. coli (ATCC 25922); wildtype strain ATCC 25922
  antibacterial activities against E. coli: significant antibacterial activities

## O=C(O)CCNc1ccc(NCCC(=O)O)c2c1C(=O)c1ccccc1C2=O [Compound 173, 3-({4-[(2-carboxyethyl)amino]-9,10-dioxo-9,10-dihydroanthracen-1-yl}amino)propanoic acid]
E. coli DNA gyrase [2]
  DNA gyrase-mediated double stranded DNA breaks / DNA nicking: cause DNA nicking

## CCn1cc(C(=O)O)c(=O)c2cc(F)c(N3CCNC(C)C3)c(F)c21 (centres unmarked) [lomefloxacin]
E. coli DNA gyrase [1]
  inhibition at 5 µM: > 40%

## O=C1C=C(NCCc2cc(Br)c(O)c(Br)c2)C(=O)c2ncccc21 [Compound 232, 7-((2-(3,5-Dibromo-4-hydroxyphenyl)ethyl)amino)-5,8-quinolinedione]
E. coli DNA gyrase [2]
  DNA gyrase-mediated double stranded DNA breaks / DNA nicking: cause DNA nicking
